Data published in paper PMC5398486, “Cheminformatics-aided discovery of small-molecule Protein-Protein Interaction (PPI) dual inhibitors of Tumor Necrosis Factor (TNF) and Receptor Activator of NF-κB Ligand (RANKL)” (PLoS Computational Biology, 2017).

Experiments:
Assay type in all cases: cell-based
[1] = Measurement of cytotoxicity in L929 cells (crystal violet); conditions: mouse, compound alone, read-out: L929 LC50
Experimental: L929 cells were seeded onto a 96-well plate (3x10^4 cells/well). After 24 h, cells were treated with the compounds at increasing concentrations. DMSO was used in the untreated control. The next day, a PBS-washing step was performed to remove dead cells. The remaining live cells were next fixed with methanol and stained with crystal violet. After solubilization with acetic acid, staining was quantified spectrophotometrically at 570 nm. Survival is expressed with respect to the untreated control. Experiments were performed in triplicate.

human RANKL = molecular target: T1, human RANKL (Homo sapiens, UniProt O14788); test: RANKL-induced osteoclastogenesis / osteoclastic (TRAP) activity assay in bone marrow cells; conditions: 50 ng/ml human RANKL + 25 ng/ml M-CSF, read-out: IC50 (RANKL complexes, TRAP activity)
T1 sequence (O14788 140-317 limits assumed): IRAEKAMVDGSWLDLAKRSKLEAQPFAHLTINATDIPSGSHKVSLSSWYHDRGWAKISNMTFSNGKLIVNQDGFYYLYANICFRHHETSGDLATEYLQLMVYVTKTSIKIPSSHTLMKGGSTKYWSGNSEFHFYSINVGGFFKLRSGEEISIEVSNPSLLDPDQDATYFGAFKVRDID
Experimental: To visualize osteoclasts, cell cultures were stained with TRAP (tartrate-resistant acid phosphatase), using an acid phosphatase leukocyte (TRAP) kit (Sigma-Aldrich). Osteoclasts were identified as TRAP-positive multinucleated cells containing more than three nuclei.
To measure osteoclast activity, bone marrow cells were cultured for four days as described above and lysed with 0.2% Triton X-100. TRAP activity was measured by the conversion of p-nitrophenyl phosphate to p-nitrophenol in the presence of sodium tartrate. Thus, cell lysates were incubated with 5.5 mM phosphatase substrate diluted in 100 mM citrate buffer and 10 mM sodium tartrate, for 40 minutes at 37°C. The reaction was stopped by addition of 0.4 N sodium hydroxide and absorbance was measured at 405 nm using a microplate reader (Molecular Devices). TRAP activity was normalized to total protein content as determined by the Bradford assay (Bio-Rad protein assay). TRAP activity per μg of total protein was expressed as a percentage of the positive control treated without compounds. IC50 values were calculated as mean ± SEM from three independent experiments performed in duplicate.

TNF = TNF (Homo sapiens, UniProt P01375); test: TNF-induced death assay in L929 cells; design: purchased PeproTech; conditions: 0.25 ng/mL human TNF + 2 μg/mL actinomycin D, approx. 24 h, read-out: L929 IC50 (inhibition of TNF-induced death)
Experimental: L929 cells were cultured on 96-well plates (3×10^4 cells/well) overnight. Then, 0.25 ng/mL human TNF (PeproTech) and 2 μg/mL actinomycin D (Sigma–Aldrich) were added. TNF with the compounds were pre-incubated for 30 min at room temperature before adding them to cells to assess inhibition. Background death was estimated using an actinomycin D treated-only control. After approximately 24 h, dead cells were cleared away by washing with PBS. The remaining live cells were then fixed with methanol and stained with crystal violet. After solubilization with acetic acid, staining was quantified spectrophotometrically at 570 nm. Cytotoxicity is expressed with respect to the background death control and also relative to the toxicity of compounds. Experiments were repeated three times.
Biological screening of the compounds examined their capacity to block TNF function in a modified TNF bioactivity assay.[91] The basis of this test is the death-inducing function of TNF in the murine fibrosarcoma cell line L929 following sensitization by the transcription inhibitor actinomycin D. Functional potency of the compounds would translate in a significant reduction of TNF-induced death. Using this approach, out of the nine shortlisted small molecules, two compounds (T8 and T23) were selected as follows. […]

TNF, sequence (P01375 77-233 limits assumed): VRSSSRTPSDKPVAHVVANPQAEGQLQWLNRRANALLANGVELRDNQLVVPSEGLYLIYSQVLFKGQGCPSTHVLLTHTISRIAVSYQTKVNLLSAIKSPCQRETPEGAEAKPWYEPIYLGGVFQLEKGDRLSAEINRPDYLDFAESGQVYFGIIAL

| SMILES | CC50 at 1 day [1] | IC50 (human RANKL) | IC50 (TNF) |
| --- | --- | --- | --- |
| O=C(NNC(=NS(=O)(=O)c1ccc(-n2nc(C(F)(F)F)cc2-c2cccs2)cc1)N1CCCC1)c1ccc(Cl)cc1 [Compound T8, N-[(4-chlorobenzoyl)amino]-N'-[4-[5-thiophen-2-yl-3-(trifluoromethyl)pyrazol-1-yl]phenyl]sulfonylpyrrolidine-1-carboximidamide] | > 100 µM | 9 ± 0.7 µM | 40 ± 2.3 µM |
| COc1cc(OC(C)=O)c(-c2cc(OC(C)=O)c(OC)cc2OC(C)=O)cc1OC(C)=O [Compound T23, [4-acetyloxy-2-(2,5-diacetyloxy-4-methoxyphenyl)-5-methoxyphenyl] acetate] | > 100 µM | 2.6 ± 0.2 µM | 17 ± 1.2 µM |
